Reference: the supplement of paper PMC10307832

Experiments:
Assay in all cases: relative viability (nuclei count vs DMSO), 5 days (fraction); higher = more cells survive
YM155 + Crizotinib = compound: COCC[n+]1c2c(n(Cc3cnccn3)c1C)C(=O)c1ccccc1C2=O [YM155] + C[C@@H](Oc1cc(-c2cnn(C3CCNCC3)c2)cnc1N)c1c(Cl)ccc(F)c1Cl [Crizotinib] (partner 1 µM)
Outline: (§1)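 Five library-drug doses in √10 steps were combined with a fixed anchor-drug dose, or a single drug was given alone, by pin tool to lung cancer cell lines in 1536-well plates the day after seeding. Nuclei were stained and counted after 5 days. Relative viability is the nuclei count in treated wells over that in vehicle wells, taken as the median of duplicate plates.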

YM155 + Decitabine = compound: COCC[n+]1c2c(n(Cc3cnccn3)c1C)C(=O)c1ccccc1C2=O [YM155] + Nc1ncn([C@H]2C[C@H](O)[C@@H](CO)O2)c(=O)n1 [Decitabine] (partner 2 µM)
Outline: as §1

Quizartinib + AZD7762 = compound: CC(C)(C)c1cc(NC(=O)Nc2ccc(-c3cn4c(n3)sc3cc(OCCN5CCOCC5)ccc34)cc2)no1 [Quizartinib] + NC(=O)Nc1cc(-c2cccc(F)c2)sc1C(=O)N[C@H]1CCCNC1 [AZD7762] (partner 0.2 µM)
Outline: as §1

[1] = compound: CC(C)(C)c1cc(NC(=O)Nc2ccc(-c3cn4c(n3)sc3cc(OCCN5CCOCC5)ccc34)cc2)no1 [Quizartinib] + CC(=O)c1c(C)c2cnc(Nc3ccc(N4CCNCC4)cn3)nc2n(C2CCCC2)c1=O [Palbociclib] (partner 0.5 µM)
Outline: as §1

| Cell Line | relative viability (YM155 + Crizotinib; first compound 0.002 µM) | relative viability (YM155 + Crizotinib; first compound 0.006325 µM) | relative viability (YM155 + Crizotinib; first compound 0.02 µM) | relative viability (YM155 + Crizotinib; first compound 0.06325 µM) | relative viability (YM155 + Decitabine; first compound 0.002 µM) | relative viability (YM155 + Decitabine; first compound 0.006325 µM) | relative viability (YM155 + Decitabine; first compound 0.02 µM) | relative viability (YM155 + Decitabine; first compound 0.06325 µM) | relative viability (Quizartinib + AZD7762; first compound 0.001 µM) | relative viability (Quizartinib + AZD7762; first compound 0.003162 µM) | relative viability (Quizartinib + AZD7762; first compound 0.01 µM) | relative viability (Quizartinib + AZD7762; first compound 0.1 µM) | relative viability ([1]; first compound 0.001 µM) | relative viability ([1]; first compound 0.003162 µM) | relative viability ([1]; first compound 0.01 µM) | relative viability ([1]; first compound 0.1 µM) | relative viability (Quizartinib + AZD7762; first compound 0.03162 µM) | relative viability ([1]; first compound 0.03162 µM) |
| --- | --- | --- | --- | --- | --- | --- | --- | --- | --- | --- | --- | --- | --- | --- | --- | --- | --- | --- |
| NCI-H358 | 0.538 | 0.594 | 0.592 | 0.214 | 0.257 | 0.2 | 0.199 | 0.22 | 0.578 | 0.448 | 0.555 | 0.5 | 0.131 | 0.117 | 0.134 | 0.138 | – | – |
| HCC-15 | 0.747 | 0.887 | 0.815 | 0.711 | 0.634 | 0.627 | 0.704 | 0.658 | 1.35 | 1.13 | 0.951 | 0.958 | 0.651 | 0.751 | 0.72 | 0.753 | 1.14 | 0.734 |
| NCI-H1666 | 1.05 | – | 1.01 | 0.879 | 0.749 | 0.671 | 0.78 | 0.726 | 0.851 | 0.803 | 0.888 | 0.99 | 0.618 | 0.66 | 0.683 | 0.637 | 0.8 | 0.638 |
| EMC-BAC-2 | 0.786 | 0.765 | 0.758 | 0.7 | 1.01 | 1.05 | 0.948 | 0.651 | 0.909 | 1.21 | 1.16 | 1.19 | 0.456 | 0.483 | 0.547 | 0.544 | – | – |
| NCI-H460 | 1.01 | 0.803 | 0.936 | 0.84 | 0.496 | 0.503 | 0.477 | 0.475 | – | 0.591 | 0.648 | 0.621 | – | 0.136 | 0.188 | 0.125 | 0.544 | – |
| NCI-H2405 | 0.8 | 0.82 | 0.831 | 0.644 | 0.711 | 0.7 | 0.644 | 0.397 | 0.919 | 0.741 | 0.789 | 0.797 | 0.499 | 0.519 | 0.584 | 0.556 | 0.745 | 0.528 |
| NCI-H727 | 0.828 | 0.821 | 0.868 | 0.738 | 0.871 | 1.01 | 0.867 | 0.857 | 0.667 | 0.545 | 0.564 | 0.759 | 0.677 | 0.684 | 0.625 | 0.765 | 0.457 | 0.673 |
| NCI-H1975 | 0.941 | 1.03 | 0.995 | 0.633 | 0.344 | 0.338 | 0.423 | 0.353 | 0.729 | 0.721 | 0.743 | 0.651 | 0.588 | 0.605 | 0.599 | 0.538 | 0.587 | 0.552 |
| BEN | 0.873 | 0.987 | 0.863 | 1.05 | 0.684 | 0.712 | 0.718 | 0.741 | 0.66 | 0.766 | 0.563 | 0.676 | 0.388 | 0.427 | 0.544 | 0.503 | 0.582 | 0.472 |
| NCI-H1993 | 1.01 | 0.825 | 0.703 | 0.552 | 0.607 | 0.644 | 0.597 | 0.439 | 0.759 | 0.699 | 0.87 | 0.914 | 0.673 | 0.58 | 0.67 | 0.825 | 0.672 | 0.633 |
| PC-3 [JPC-3] | 0.939 | 1.04 | 1.06 | 1.1 | 0.778 | 0.796 | 0.89 | 0.701 | 0.545 | 0.811 | 0.781 | 0.766 | 0.531 | 0.545 | 0.598 | 0.504 | 0.75 | 0.588 |
| NCI-H650 | 0.835 | 0.655 | 0.747 | 0.52 | 0.329 | 0.3 | 0.282 | 0.293 | 0.858 | 0.785 | 1.25 | 1.13 | 0.355 | 0.309 | 0.361 | 0.355 | 0.856 | 0.336 |
| NCI-H2170 | 1.13 | 1.18 | 1.24 | 1.18 | 0.506 | 0.508 | 0.42 | 0.516 | 0.906 | 0.848 | 0.914 | 1.03 | 0.385 | 0.365 | 0.392 | 0.358 | 0.973 | 0.367 |
| NCI-H2087 | 0.914 | 0.71 | 0.883 | 0.648 | 0.37 | 0.282 | 0.245 | 0.293 | 1.13 | 1.15 | 1.26 | 1.3 | 0.233 | 0.225 | 0.316 | 0.229 | 1.38 | 0.218 |
| NCI-H2126 | 0.988 | 0.967 | 1.07 | 1.04 | 0.53 | 0.624 | 0.59 | 0.6 | 1.03 | 0.923 | 0.982 | 1.01 | 0.359 | 0.347 | 0.347 | 0.346 | 0.954 | 0.339 |
| NCI-H322M | 0.822 | 0.906 | 0.949 | 0.578 | 0.689 | 0.722 | 0.7 | 0.753 | 0.531 | 0.56 | 0.557 | 0.705 | 0.429 | 0.477 | 0.49 | 0.527 | 0.531 | 0.512 |
| EPLC-272H | 0.692 | 0.814 | 0.952 | 1.06 | 0.322 | 0.33 | 0.352 | 0.365 | 0.287 | 0.325 | 0.258 | 0.231 | 0.304 | 0.355 | 0.301 | 0.312 | 0.208 | 0.311 |
